Structures are written as SMILES.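 Step 1: Grow cells in 96-well plates. Step 2: Expose to compound for 48 hours at 5 concentrations. Step 3: Interpolate endpoints linearly; if unreached, use highest concentration. Abbreviation: GI50, concentration required for 50% inhibition of growth. TGI denotes the concentration required for complete inhibition of growth.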

Test systems include CCRF-CEM leukemia; COLO 205 colon; DU-145 prostate; HCT-116 colon; KM12 colon; LOX IMVI melanoma; M14 melanoma; NCI-H522 lung; RPMI-8226 leukemia; TK-10 renal.
Test in all cases: NCI tumour cell line growth inhibition, 48 h

As for `Cc1cn2c(/C=C3\C(=O)Nc4ccc(O)cc43)c(-c3ccc(Cl)cc3)nc2s1`, the GI50 was 29.4 µM with CCRF-CEM leukemia; 20.8 µM in the test on COLO 205 colon; 10.3 µM with DU-145 prostate; 15.6 µM in the test on HCT-116 colon; 45.4 µM with KM12 colon; 21.3 µM in the test with LOX IMVI melanoma. Moreover, the GI50 in the test with M14 melanoma is 17 µM; in the test on NCI-H522 lung, 11.3 µM; in the test on RPMI-8226 leukemia it was 34.5 µM; in the test on TK-10 renal it was 18.7 µM. The TGI is > 100 µM in the test with CCRF-CEM leukemia; 81.1 µM in the test on COLO 205 colon; 25.2 µM with DU-145 prostate; 42.5 µM in the test with HCT-116 colon; > 100 µM in the test on KM12 colon; > 100 µM in the test with LOX IMVI melanoma. Besides, the TGI in the test with M14 melanoma is > 100 µM; in the test with NCI-H522 lung, 57.9 µM; in the test on RPMI-8226 leukemia, > 100 µM; in the test on TK-10 renal it was 52.2 µM.
Turning to `CCCCCCNC(=O)c1nc(-c2ccccc2)oc1Cc1ccc(OP(=O)(O)O)cc1`, the GI50 was 24 µM in the test on CCRF-CEM leukemia; 17 µM with COLO 205 colon; 10.2 µM in the test on DU-145 prostate; 17.1 µM with HCT-116 colon; 17.5 µM with KM12 colon; 16.4 µM with LOX IMVI melanoma. Moreover, the GI50 with M14 melanoma was 18 µM; with NCI-H522 lung it was 16.1 µM; in the test on RPMI-8226 leukemia it was 20.4 µM; with TK-10 renal, 16.9 µM. Also, the TGI with CCRF-CEM leukemia was determined as 67 µM; with COLO 205 colon it was 31.2 µM; in the test on DU-145 prostate, 22.3 µM; in the test on HCT-116 colon it was 32.6 µM; in the test on KM12 colon it was 33.2 µM; in the test with LOX IMVI melanoma it was 30.2 µM. Moreover, the TGI turned out to be 35.5 µM in the test on M14 melanoma, 34.5 µM in the test with NCI-H522 lung, 49 µM in the test with RPMI-8226 leukemia and 32.9 µM in the test on TK-10 renal.
`C[C@H]1Oc2cc(cnc2N)-c2c(nn(C)c2C#N)CN(C)C(=O)c2ccc(F)cc21`: the GI50 was > 100 µM in the test on CCRF-CEM leukemia; 5.24 µM in the test with COLO 205 colon; 26.6 µM with DU-145 prostate; 22.9 µM in the test with HCT-116 colon; 0.275 µM in the test with KM12 colon; 40.5 µM in the test on LOX IMVI melanoma. Further, the GI50 in the test with M14 melanoma was 48.9 µM; in the test with NCI-H522 lung it was 57 µM; with RPMI-8226 leukemia, > 100 µM; in the test on TK-10 renal, 36.5 µM. The TGI was > 100 µM in the test with CCRF-CEM leukemia; 51.4 µM with COLO 205 colon; > 100 µM with DU-145 prostate; > 100 µM in the test on HCT-116 colon; > 100 µM in the test with KM12 colon; > 100 µM in the test with LOX IMVI melanoma. Moreover, the TGI in the test on M14 melanoma, in the test with NCI-H522 lung, with RPMI-8226 leukemia and with TK-10 renal was > 100 µM throughout.
Consider `C1CSCCSCCS1`, for which the TGI with CCRF-CEM leukemia, with COLO 205 colon, with DU-145 prostate, in the test with HCT-116 colon, in the test on KM12 colon and in the test with LOX IMVI melanoma was > 100 µM throughout. Also, the TGI with M14 melanoma, in the test with NCI-H522 lung, in the test on RPMI-8226 leukemia and with TK-10 renal was > 100 µM throughout.
As to `CS(=O)(=O)CCCn1c(=O)c(Oc2ccc(F)cc2F)cc2cnc(NC3CCOCC3)nc21`, the GI50 with CCRF-CEM leukemia, with COLO 205 colon, with DU-145 prostate, in the test on HCT-116 colon, in the test with KM12 colon and in the test with LOX IMVI melanoma was > 25 µM throughout. For the same molecule, the GI50 with M14 melanoma, with NCI-H522 lung, with RPMI-8226 leukemia and in the test with TK-10 renal was > 25 µM in each case. Also, the TGI in the test on CCRF-CEM leukemia, with COLO 205 colon, in the test on DU-145 prostate, in the test with HCT-116 colon, with KM12 colon and in the test with LOX IMVI melanoma was > 25 µM each time. The TGI in the test with M14 melanoma, with NCI-H522 lung, in the test on RPMI-8226 leukemia and in the test on TK-10 renal was > 25 µM throughout.
For `COC12C=C/C(=C(/C(=O)OCc3ccncc3)C(=O)CCCCCCCCC3(OC)C=C/C(=C(/C(=O)OCc4ccncc4)C(=O)CCCCCCCC1)O3)O2`, the GI50 was 0.0515 µM in the test with CCRF-CEM leukemia; 0.78 µM in the test with COLO 205 colon; 0.709 µM in the test with DU-145 prostate; 0.111 µM in the test with HCT-116 colon; 0.78 µM with KM12 colon; 0.107 µM with LOX IMVI melanoma. Besides, the GI50 in the test with M14 melanoma was 0.17 µM; in the test with NCI-H522 lung, 0.564 µM; in the test with RPMI-8226 leukemia, 0.196 µM; in the test with TK-10 renal, 1.6 µM. The TGI with CCRF-CEM leukemia worked out at 2.29 µM; in the test with COLO 205 colon, 2.18 µM; in the test on DU-145 prostate it was 2.29 µM; in the test on HCT-116 colon, 0.239 µM; in the test with KM12 colon it was 1.78 µM; with LOX IMVI melanoma, 0.264 µM. For the same molecule, the TGI in the test on M14 melanoma amounted to 0.574 µM; in the test on NCI-H522 lung, 1.76 µM; with RPMI-8226 leukemia it was 1.1 µM; in the test with TK-10 renal, 3.67 µM.
In the case of `COc1ccc(-c2oc(=O)ccc2-c2cc(OC)c(OC)c(OC)c2)cc1F`, the GI50 in the test with CCRF-CEM leukemia was 26.6 µM; in the test with COLO 205 colon it was 18 µM; in the test on DU-145 prostate it was 32 µM; in the test on HCT-116 colon it was 10.9 µM; with KM12 colon it was 4.52 µM; in the test on LOX IMVI melanoma it was 10.9 µM. Also, the GI50 in the test on M14 melanoma is 14.1 µM; in the test with NCI-H522 lung it was 3.04 µM; with RPMI-8226 leukemia, 11.1 µM; with TK-10 renal, 39.4 µM. For the same molecule, the TGI with CCRF-CEM leukemia, in the test with COLO 205 colon, in the test with DU-145 prostate, with HCT-116 colon, with KM12 colon and in the test on LOX IMVI melanoma was > 100 µM throughout. In addition, the TGI is > 100 µM in the test with M14 melanoma, 23.6 µM with NCI-H522 lung, 61.4 µM in the test with RPMI-8226 leukemia and > 100 µM with TK-10 renal.
